Earlier results in US20070166389A1, “Stabilized lyophilized blood platelets” (priority 2005, published 2007).

Legend:
[1] = dosages effective for increasing bile salt secretion
[2] = system: sickle erythrocytes; conditions: glyceraldehyde treatment in vitro

deleterious effects of the treatment [2]	Structure (SMILES)	abnormal symptoms in liver or kidney [1]	life span in vivo of sickle erythrocytes [2]
	COC(=O)C1=CO[C@@H](O)[C@@H]2C(CO)=CC[C@H]12 [genipin]	do not cause any abnormal symptoms in the liver or kidney	
failed to show any deleterious effects	O=CC(O)CO (stereo not drawn) [glyceraldehyde]		prolongation of the life span of sickle erythrocytes
